Laboratory results from patent US20070281992A1, “COMBINATION OF GYRASE B INHIBITORS AND PROTEIN SYNTHESIS INHIBITORS AND USES THEREOF” (priority 2006, published 2007).
Like-named read-outs stand apart in the source and are kept apart here.

Legend:
Assay type in all cases: cell-based
[1] = test system: Enterococcus faecalis (ATCC 29212); assay: MIC assay, quality control strain E. faecalis ATCC 29212; conditions: ATCC29212, E. faecalis ATCC 29212, repeat runs 22FEB06-09MAR06, combinations at 2.5:1, read-out: Minimal Inhibitory Concentration, quality control
Outline: (§1)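 Broth microdilution MICs determined per NCCLS M7-A6 in Mueller Hinton II broth over 11 two-fold dilutions. Novobiocin/tetracycline and novobiocin/minocycline combinations tested at a 2.5:1 ratio. Vancomycin served as control agent; S. aureus ATCC 29213 and E. faecalis ATCC 29212 were QC strains.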

[2] = test system: Vancomycin-intermediate Staphylococcus epidermidis Isolates; assay: MIC assay (NCCLS broth dilution), VISE isolates; conditions: Staphylococcus epidermidis; for MIC: read-out: Minimal Inhibitory Concentration
Outline: as §1

[3] = test system: Methicillin-Susceptible Staphylococcus aureus Isolates; assay: MIC assay (NCCLS broth dilution), MSSA clinical isolates; conditions: Staphylococcus aureus; for MIC: read-out: Minimal Inhibitory Concentration
Outline: as §1

[4] = test system: Methicillin-Resistant Staphylococcus aureus Isolates; assay: MIC assay (NCCLS broth dilution), MRSA clinical isolates; conditions: Staphylococcus aureus; for MIC: read-out: Minimal Inhibitory Concentration
Outline: as §1

[5] = test system: Unconfirmed Vancomycin-intermediate Staphylococcus epidermidis Isolates; assay: MIC assay (NCCLS broth dilution), unconfirmed VISE isolates; conditions: for MIC: read-out: Minimal Inhibitory Concentration
Outline: as §1

[6] = 52 MSSA isolates, combinations at 2.5:1, given as NB/partner
[7] = 52 MRSA isolates, combinations at 2.5:1, given as NB/partner

**Q.** What does the source list for `CN(C)[C@@H]1C(O)=C(C(N)=O)C(=O)[C@@]2(O)C(O)=C3C(=O)c4c(O)cccc4[C@@](C)(O)[C@H]3C[C@@H]12` [TE, tetracycline]?
**A.** MIC [1]: 16 µg/mL; MIC ([2]; VISE isolate 2020, 09MAR06): > 16 µg/mL; MIC ([2]; VISE isolate 2021, 09MAR06): 0.25 µg/mL; MIC ([2]; VISE isolate 2022, 03MAR06): 2 µg/mL; MIC ([2]; VISE isolate 2023, 03MAR06): 0.5 µg/mL; MIC50 ([2]; 4 VISE isolates, combinations at 2.5:1): 0.5 µg/mL; MIC ([3]; MSSA isolate 133, 03MAR06): 0.5 µg/mL; MIC ([3]; MSSA isolate 134, 03MAR06): 0.5 µg/mL; MIC ([3]; MSSA isolate 135, 03MAR06): 0.5 µg/mL; MIC ([3]; MSSA isolate 753, 22FEB06): 0.5 µg/mL; MIC ([3]; MSSA isolate 754, 22FEB06): 0.5 µg/mL; MIC ([3]; MSSA isolate 754, 24FEB06): 0.5 µg/mL; MIC ([3]; MSSA isolate 755, 22FEB06): 0.5 µg/mL; MIC ([3]; MSSA isolate 756, 03MAR06): 0.5 µg/mL; MIC ([3]; MSSA isolate 779, 22FEB06): 0.5 µg/mL; MIC ([3]; MSSA isolate 780, 03MAR06): 0.5 µg/mL; MIC ([3]; MSSA isolate 781, 03MAR06): 0.5 µg/mL; MIC ([3]; MSSA isolate 782, 22FEB06): 1 µg/mL; MIC ([3]; MSSA isolate 783, 22FEB06): 0.5 µg/mL; MIC ([3]; MSSA isolate 784, 22FEB06): 16 µg/mL; MIC ([3]; MSSA isolate 785, 22FEB06): 0.5 µg/mL; MIC ([3]; MSSA isolate 786, 22FEB06): 0.5 µg/mL; MIC ([3]; MSSA isolate 787, 22FEB06): 0.5 µg/mL; MIC ([3]; MSSA isolate 788, 22FEB06): 0.5 µg/mL; MIC ([3]; MSSA isolate 789, 24FEB06): 0.5 µg/mL; MIC ([3]; MSSA isolate 790, 24FEB06): 0.5 µg/mL; MIC ([3]; MSSA isolate 791, 24FEB06): 0.5 µg/mL; MIC ([3]; MSSA isolate 792, 03MAR06): 0.5 µg/mL; MIC ([3]; MSSA isolate 793, 24FEB06): 0.5 µg/mL; MIC ([3]; MSSA isolate 794, 24FEB06): 0.5 µg/mL; MIC ([3]; MSSA isolate 994, 22FEB06): 0.5 µg/mL; MIC ([3]; MSSA isolate 995, 03MAR06): 0.5 µg/mL; MIC ([3]; MSSA isolate 996, 22FEB06): 0.5 µg/mL; MIC ([3]; MSSA isolate 997, 22FEB06): 0.5 µg/mL; MIC ([3]; MSSA isolate 998, 03MAR06): 0.5 µg/mL; MIC ([3]; MSSA isolate 999, 22FEB06): > 16 µg/mL; MIC ([3]; MSSA isolate 1000, 24FEB06): 0.5 µg/mL; MIC ([3]; MSSA isolate 1001, 24FEB06): 0.5 µg/mL; MIC ([3]; MSSA isolate 1002, 24FEB06): 0.5 µg/mL; MIC ([3]; MSSA isolate 1003, 03MAR06): 0.5 µg/mL; MIC ([3]; MSSA isolate 1005, 24FEB06): 0.25 µg/mL; MIC ([3]; MSSA isolate 1006, 24FEB06): 0.5 µg/mL; MIC ([3]; MSSA isolate 1007, 24FEB06): 0.5 µg/mL; MIC ([3]; MSSA isolate 1008, 24FEB06): 0.5 µg/mL; MIC ([3]; MSSA isolate 1009, 24FEB06): 0.5 µg/mL; MIC ([3]; MSSA isolate 1131, 24FEB06): 0.5 µg/mL; MIC ([3]; MSSA isolate 1132, 03MAR06): 0.5 µg/mL; MIC ([3]; MSSA isolate 1133, 24FEB06): 0.5 µg/mL; MIC ([3]; MSSA isolate 1134, 24FEB06): 0.5 µg/mL; MIC ([3]; MSSA isolate 1654, 03MAR06): 0.5 µg/mL; MIC ([3]; MSSA isolate 1656, 03MAR06): 0.5 µg/mL; MIC ([3]; MSSA isolate 1662, 03MAR06): 0.5 µg/mL; MIC ([3]; MSSA isolate 1663, 03MAR06): 1 µg/mL; MIC ([3]; MSSA isolate 1666, 03MAR06): 0.5 µg/mL; MIC ([3]; MSSA isolate 1667, 03MAR06): 1 µg/mL; MIC ([3]; MSSA isolate 1668, 03MAR06): 0.5 µg/mL; MIC ([3]; MSSA isolate 1671, 03MAR06): 0.5 µg/mL; MIC ([3]; MSSA isolate 1728, 03MAR06): 0.25 µg/mL; MIC ([3]; MSSA isolate 1728, retest 09MAR06): 0.25 µg/mL; MIC50 [3, 6]: 0.5 µg/mL; MIC90 [3, 6]: 0.5 µg/mL; MIC ([4]; MRSA isolate 757, 24FEB06): > 16 µg/mL; MIC ([4]; MRSA isolate 758, 03MAR06): 1 µg/mL; MIC ([4]; MRSA isolate 758, 24FEB06): 0.5 µg/mL; MIC ([4]; MRSA isolate 760, 03MAR06): 1 µg/mL; MIC ([4]; MRSA isolate 760, 24FEB06): 0.5 µg/mL; MIC ([4]; MRSA isolate 763, 22FEB06): 0.5 µg/mL; MIC ([4]; MRSA isolate 765, 22FEB06): 0.5 µg/mL; MIC ([4]; MRSA isolate 766, 22FEB06): 1 µg/mL; MIC ([4]; MRSA isolate 767, 22FEB06): 0.5 µg/mL; MIC ([4]; MRSA isolate 768, 22FEB06): 0.5 µg/mL; MIC ([4]; MRSA isolate 769, 22FEB06): > 16 µg/mL; MIC ([4]; MRSA isolate 770, 22FEB06): 0.5 µg/mL; MIC ([4]; MRSA isolate 771, 22FEB06): 0.5 µg/mL; MIC ([4]; MRSA isolate 772, 22FEB06): 0.5 µg/mL; MIC ([4]; MRSA isolate 773, 24FEB06): 0.5 µg/mL; MIC ([4]; MRSA isolate 774, 24FEB06): 0.5 µg/mL; MIC ([4]; MRSA isolate 775, 24FEB06): 0.5 µg/mL; MIC ([4]; MRSA isolate 776, 24FEB06): 0.5 µg/mL; MIC ([4]; MRSA isolate 777, 24FEB06): 0.5 µg/mL; MIC ([4]; MRSA isolate 778, 24FEB06): 0.25 µg/mL; MIC ([4]; MRSA isolate 886, 24FEB06): 0.5 µg/mL; MIC ([4]; MRSA isolate 887, 24FEB06): 0.5 µg/mL; MIC ([4]; MRSA isolate 888, 24FEB06): 0.5 µg/mL; MIC ([4]; MRSA isolate 889, 24FEB06): 1 µg/mL; MIC ([4]; MRSA isolate 1004, 24FEB06): 16 µg/mL; MIC ([4]; MRSA isolate 1010, 22FEB06): 4 µg/mL; MIC ([4]; MRSA isolate 1012, 22FEB06): 1 µg/mL; MIC ([4]; MRSA isolate 1013, 22FEB06): 0.5 µg/mL; MIC ([4]; MRSA isolate 1014, 22FEB06): 0.5 µg/mL; MIC ([4]; MRSA isolate 1015, 22FEB06): 0.5 µg/mL; MIC ([4]; MRSA isolate 1016, 22FEB06): 0.5 µg/mL; MIC ([4]; MRSA isolate 1017, 22FEB06): 0.5 µg/mL; MIC ([4]; MRSA isolate 1021, 22FEB06): 0.5 µg/mL; MIC ([4]; MRSA isolate 1022, 22FEB06): 0.5 µg/mL; MIC ([4]; MRSA isolate 1023, 22FEB06): 0.5 µg/mL; MIC ([4]; MRSA isolate 1024, 22FEB06): 0.5 µg/mL; MIC ([4]; MRSA isolate 1025, 22FEB06): 0.5 µg/mL; MIC ([4]; MRSA isolate 1135, 22FEB06): 0.5 µg/mL; MIC ([4]; MRSA isolate 1136, 22FEB06): 0.5 µg/mL; MIC ([4]; MRSA isolate 1137, 22FEB06): 0.5 µg/mL; MIC ([4]; MRSA isolate 1138, 22FEB06): 1 µg/mL; MIC ([4]; MRSA isolate 1222, 03MAR06): 0.5 µg/mL; MIC ([4]; MRSA isolate 1222, 24FEB06): 0.5 µg/mL; MIC ([4]; MRSA isolate 1653, 03MAR06): 0.25 µg/mL; MIC ([4]; MRSA isolate 1658, 03MAR06): 0.5 µg/mL; MIC ([4]; MRSA isolate 1659, 03MAR06): 0.25 µg/mL; MIC ([4]; MRSA isolate 1661, 03MAR06): 0.5 µg/mL; MIC ([4]; MRSA isolate 1729, 03MAR06): > 16 µg/mL; MIC ([4]; MRSA isolate 1730, 24FEB06): 0.5 µg/mL; MIC ([4]; MRSA isolate 2009, 24FEB06): > 16 µg/mL; MIC ([4]; MRSA isolate 2010, 24FEB06): 0.5 µg/mL; MIC ([4]; MRSA isolate 2011, 24FEB06): > 16 µg/mL; MIC50 [4, 7]: 0.5 µg/mL; MIC90 [4, 7]: 16 µg/mL; MIC Range ([5]; 3 unconfirmed VISE isolates, combinations at 2.5:1): 0.5 to 2 µg/mL; MIC ([5]; Staphylococcus epidermidis, Unconfirmed VISE isolate 2024, 09MAR06): 2 µg/mL; MIC ([5]; Staphylococcus epidermidis, Unconfirmed VISE isolate 2025, 09MAR06): 0.5 µg/mL; MIC ([5]; Staphylococcus epidermidis, Unconfirmed VISE isolate 2026, 03MAR06): 2 µg/mL; MIC50 ([5]; Staphylococcus epidermidis, 3 unconfirmed VISE isolates, combinations at 2.5:1): 2 µg/mL
